# Tested on: KB tumor-bearing mice
# Assay: Ex vivo biodistribution in human KB tumor-bearing nude mice
# Conditions: for Ratio of tumor to Blood / Ratio of tumor to Kidney / Ratio of tumor to Liver / %ID/g Blood / %ID/g Bone / %ID/g Feces / %ID/g Gall bladder / %ID/g Heart / %ID/g Intestines (empty) / %ID/g Tumor / %ID/g Kidneys / %ID/g Liver / %ID/g Lung / %ID/g Muscle / %ID/g Salivary glands / %ID/g Spleen / %ID/g Stomach (empty): n = 3; for %ID/g Tumor: KB tumor
# Experimental: All animal experiments were approved by the local veterinary department and complied with Swiss and local laws on animal protection. Female CD-1 nude mice (Charles River, Sulzfeld, Germany) were fed with a folate-deficient rodent diet (Harlan Laboratories, Indianapolis, IN, USA). After an acclimatization period of 5 to 7 days, human KB tumor cells (5 × 10^6 cells in 0.1 mL sterile phosphate-buffered saline (PBS)) were inoculated subcutaneously on both shoulders of each mouse. Twelve days later, the animals were intravenously injected with [^18 F]12 (approximately 5 MBq, 100 μL). […] Animals were euthanized at the indicated time points, and selected organs and tissues were collected, weighed, and measured in a γ-counter. The incorporated radioactivity was expressed as percentage injected dose per gram (%ID/g) of tissue. PET/computed tomography (CT) experiments were performed with a dedicated small-animal PET/CT scanner (eXplore Vista PET/CT, Sedecal, Algete, Spain/GE Healthcare). Animals were intravenously injected with [^18 F]12 (approximately 13 MBq, 100 μL). For scanning, mice were anesthetized with isoflurane in an air/oxygen mixture. The PET scans were acquired from 60 to 90 min post-injection (p.i.) followed by a CT. After acquisition, PET data were reconstructed in user-defined time frames, and the fused datasets of PET and CT were analyzed with PMOD software (version 3.4).
# Biodistribution studies of the new ^18 F-folate [^18 F]12 were performed using human KB tumor-bearing nude mice, determined at 30, 60, and 90 min post-injection. […] Selective blocking of the folate receptors led to a decrease in specific radiotracer accumulation of 94% in KB tumors and 99% in kidneys (Figure 2). The strong blocking effect reflected the high specificity of the tracer to the FR in vivo. Unspecific liver uptake decreased from 5.2%ID/g to 2.1%ID/g over 90 min similar to the background radioactivity in the feces and gall bladder (Table 2), which is believed to be a beneficial effect of the increased polarity of this novel radiofolate. Compared to the biodistribution profile at 45 min post-injection of the former ^18 F-click folate by Ross and co-workers, the specific uptake of the original ^18 F-click folate in KB tumors was retained, whereas the specific kidney uptake more than doubled. This indicated a stronger tendency to renal excretion, more likely a result of the increased polarity of the new ^18 F-folate [^18 F]12. Additionally, the highest unspecific background accumulation in the gall bladder was reduced by half. This background reduction correlated with the more renal excretion and the two times lower k’ value as an indicator of lipophilicity of the here presented radiofolate. […] On the other hand, the still increased uptake levels in the gall bladder and feces were evidence of a prominent hepatobiliary elimination pathway of [^18 F]12. However, distinct changes in the molecular structure of the folate-based radioconjugate [^18 F]12 induced a higher polarity into the lead molecule ^18 F-click folate and a significant reduction of the in vivo background.
# Figure 2 Results of ex vivo biodistribution studies under control and blockade conditions using [^18 F]12 in mice. The human KB tumor-bearing nude mice were euthanized 60 min post-injection. Data are expressed as percentage injected dose per gram tissue (%ID/g).
# [1] = 60 min p.i., 100 μg native folic acid before tracer
# [2] = 60 min p.i. blockade (100 μg folic acid 5 min before tracer)
substance,measurement,setting,value
"16-(4-(((2-amino-4-oxo-3,4-dihydropteridin-6-yl)methyl)amino)benzamido)-1-(4-(2-(2-(2-[^18 F]fluoroethoxy)ethoxy)ethoxy)-1H-1,2,3-triazol-1-yl)-13-oxo-3,6,9-trioxa-12-azaheptadecan-17-oic acid [[^18 F]12]",Ratio of tumor to Blood,30 min p.i.,16.81 ± 3.13
same,Ratio of tumor to Kidney,30 min p.i.,0.08 ± 0.02
same,Ratio of tumor to Liver,30 min p.i.,0.69 ± 0.22
same,"decrease in specific radiotracer accumulation by FR blocking, KB tumors",[1],94%
same,"decrease in specific radiotracer accumulation by FR blocking, kidneys",[1],99%
same,Ratio of tumor to Blood,60 min p.i.,18.95 ± 2.68
same,Ratio of tumor to Kidney,60 min p.i.,0.08 ± 0.01
same,Ratio of tumor to Liver,60 min p.i.,0.86 ± 0.19
same,Ratio of tumor to Blood,90 min p.i.,22.72 ± 6.73
same,Ratio of tumor to Kidney,90 min p.i.,0.09 ± 0.01
same,Ratio of tumor to Liver,90 min p.i.,1.55 ± 0.15
same,%ID/g Blood,30 min p.i.,0.20 ± 0.02 %ID/g
same,%ID/g Blood,[2],0.04 ± 0.01 %ID/g
same,%ID/g Blood,60 min p.i.,0.18 ± 0.01 %ID/g
same,%ID/g Blood,90 min p.i.,0.16 ± 0.02 %ID/g
same,%ID/g Bone,30 min p.i.,1.47 ± 0.05 %ID/g
same,%ID/g Bone,[2],0.06 ± 0.06 %ID/g
same,%ID/g Bone,60 min p.i.,1.13 ± 0.21 %ID/g
same,%ID/g Bone,90 min p.i.,0.84 ± 0.16 %ID/g
same,%ID/g Feces,30 min p.i.,164.2 ± 72.5 %ID/g
same,%ID/g Feces,[2],105.5 ± 128.7 %ID/g
same,%ID/g Feces,60 min p.i.,29.48 ± 19.04 %ID/g
same,%ID/g Feces,90 min p.i.,11.36 ± 4.29 %ID/g
same,%ID/g Gall bladder,30 min p.i.,309.3 ± 187.6 %ID/g
same,%ID/g Gall bladder,[2],775.5 ± 206.5 %ID/g
same,%ID/g Gall bladder,60 min p.i.,133.2 ± 67.38 %ID/g
same,%ID/g Gall bladder,90 min p.i.,55.13 %ID/g
same,%ID/g Heart,30 min p.i.,1.81 ± 0.61 %ID/g
same,%ID/g Heart,[2],0.02 ± 0.01 %ID/g
same,%ID/g Heart,60 min p.i.,1.09 ± 0.07 %ID/g
same,%ID/g Heart,90 min p.i.,0.79 ± 0.16 %ID/g
same,%ID/g Intestines (empty),30 min p.i.,23.52 ± 7.37 %ID/g
same,%ID/g Intestines (empty),[2],14.72 ± 19.32 %ID/g
same,%ID/g Intestines (empty),60 min p.i.,4.56 ± 2.31 %ID/g
same,%ID/g Intestines (empty),90 min p.i.,1.92 ± 0.52 %ID/g
same,%ID/g Tumor,30 min p.i.,3.4 %ID/g
same,%ID/g Tumor,"30 min p.i., listed as 12",3.39 ± 0.54 %ID/g
same,%ID/g Tumor,[2],0.19 ± 0.07 %ID/g
same,%ID/g Tumor,60 min p.i.,3.39 ± 0.44 %ID/g
same,%ID/g Tumor,90 min p.i.,3.54 ± 0.68 %ID/g
same,%ID/g Kidneys,30 min p.i.,42 %ID/g
same,%ID/g Kidneys,"30 min p.i., listed as 12",41.80 ± 2.58 %ID/g
same,%ID/g Kidneys,[2],0.26 ± 0.08 %ID/g
same,%ID/g Kidneys,60 min p.i.,40.77 ± 4.34 %ID/g
same,%ID/g Kidneys,90 min p.i.,41.04 ± 7.04 %ID/g
same,%ID/g Liver,30 min p.i.,5.2 %ID/g
same,%ID/g Liver,"30 min p.i., listed as 12",5.24 ± 1.57 %ID/g
same,%ID/g Liver,[2],0.21 ± 0.09 %ID/g
same,%ID/g Liver,60 min p.i.,4.05 ± 0.67 %ID/g
same,%ID/g Liver,90 min p.i.,2.1 %ID/g
same,%ID/g Liver,"90 min p.i., listed as 12",2.30 ± 0.54 %ID/g
same,%ID/g Lung,30 min p.i.,1.21 ± 0.15 %ID/g
same,%ID/g Lung,[2],0.04 ± 0.03 %ID/g
same,%ID/g Lung,60 min p.i.,1.02 ± 0.7 %ID/g
same,%ID/g Lung,90 min p.i.,0.86 ± 0.17 %ID/g
same,%ID/g Muscle,30 min p.i.,1.91 ± 0.25 %ID/g
same,%ID/g Muscle,[2],0.08 ± 0.09 %ID/g
same,%ID/g Muscle,60 min p.i.,1.64 ± 0.46 %ID/g
same,%ID/g Muscle,90 min p.i.,1.17 ± 0.03 %ID/g
same,%ID/g Salivary glands,30 min p.i.,8.01 ± 1.16 %ID/g
same,%ID/g Salivary glands,[2],0.20 ± 0.18 %ID/g
same,%ID/g Salivary glands,60 min p.i.,9.28 ± 1.68 %ID/g
same,%ID/g Salivary glands,90 min p.i.,7.03 ± 1.98 %ID/g
same,%ID/g Spleen,30 min p.i.,0.53 ± 0.14 %ID/g
same,%ID/g Spleen,[2],0.06 ± 0.03 %ID/g
same,%ID/g Spleen,60 min p.i.,0.49 ± 0.04 %ID/g
same,%ID/g Spleen,90 min p.i.,0.43 ± 0.08 %ID/g
same,%ID/g Stomach (empty),30 min p.i.,2.18 ± 0.76 %ID/g
same,%ID/g Stomach (empty),[2],0.12 ± 0.11 %ID/g
same,%ID/g Stomach (empty),60 min p.i.,1.39 ± 0.13 %ID/g
same,%ID/g Stomach (empty),90 min p.i.,0.96 ± 0.37 %ID/g
